According to patent US11427567B2, “Imidazolyl pyrimidinylamine compounds as CDK2 inhibitors” (Incyte Corporation, priority 2019, dated 2022):

Target: CDK2/Cyclin E1 (Homo sapiens (Human), UniProt P24941)
Assay: CDK2/Cyclin E1 HTRF enzyme activity assay (Example A)
Format: biochemical
Settings: 1 mM ATP
Experimental: Assays were conducted in white 384-well polystyrene plates in a final reaction volume of 8 μL. […] HTRF signals were read after 1 hour at room temperature on a PHERAstar FS plate reader (BMG Labtech). Data was analyzed with IDBS XLFit and GraphPad Prism 5.0 software using a three or four parameter dose response curve to determine IC50 for each compound.

IC50, ≤ 50 nM:
CS(=O)(=O)N1CCC(Nc2ncc(C(F)(F)F)c(-c3cn(CC(F)F)cn3)n2)CC1 [Example 21, 4-(1-(2,2-Difluoroethyl)-1H-imidazol-4-yl)-N-(1-(methylsulfonyl)piperidin-4-yl)-5-(trifluoromethyl)pyrimidin-2-amine]
CNCc1ccc(-n2cnc(-c3nc(NC4CCN(S(C)(=O)=O)CC4)ncc3C(F)(F)F)c2)c(C#N)c1 [Example 249, 5-((Methylamino)methyl)-2-(4-(2-((1-(methylsulfonyl)piperidin-4-yl)amino)-5-(trifluoromethyl)pyrimidin-4-yl)-1H-imidazol-1-yl)benzonitrile]
[2H]C([2H])([2H])NC(=O)c1ccc(-n2cnc(-c3nc(NC4CCN(S(C)(=O)=O)CC4)ncc3C(F)(F)F)c2)c(C)n1 [Example 131, 6-Methyl-N-(methyl-d)-5-(4-(2-((1-(methylsulfonyl)piperidin-4-yl)amino)-5-(trifluoromethyl)pyrimidin-4-yl)-1H-imidazol-1-yl)picolinamide]
Cc1nc(-c2nc(NC3CCN(S(C)(=O)=O)CC3)ncc2C(F)(F)F)cn1-c1ccc(N2CCN[C@H](C)C2)cc1F [Example 115, (R)-4-(1-(2-Fluoro-4-(3-methyl-piperazin-1-yl)-phenyl)-2-methyl-1H-imidazol-4-yl)-N-(1-(methyl-sulfonyl)piperidin-4-yl)-5-(trifluoro-methyl)pyrimidin-2-amine]
COc1ccc(-n2cnc(-c3nc(NC4CCN(S(C)(=O)=O)CC4)ncc3C(F)(F)F)c2)c(C(F)(F)F)n1 [Example 70, 4-(1-(6-Methoxy-2-(trifluoromethyl)pyridin-3-yl)-1H-imidazol-4-yl)-N-(1-(methylsulfonyl)piperidin-4-yl)-5-(trifluoromethyl)pyrimidin-2-amine]
Cn1ncnc1-c1ccc(-n2cnc(-c3nc(NC4CCN(S(C)(=O)=O)CC4)ncc3C(F)(F)F)c2)c(Cl)c1 [Example 121, 4-(1-(2-Chloro-4-(1-methyl-1H-1,2,4-triazol-5-yl)phenyl)-1H-imidazol-4-yl)-N-(1-(methylsulfonyl)-piperidin-4-yl)-5-(trifluoromethyl)-pyrimidin-2-amine]
CS(=O)(=O)N1CCC(Nc2ncc(C(F)(F)F)c(-c3cn(-c4ccc(CCN5CCCCC5)cc4C#N)cn3)n2)CC1 [Example 458, 2-(4-(2-((1-(Methylsulfonyl)piperidin-4-yl)amino)-5-(trifluoromethyl)pyrimidin-4-yl)-1H-imidazol-1-yl)-5-(2-(piperidin-1-yl)ethyl)benzonitrile]
Cc1nc(CN2CCC2)ccc1-n1cnc(-c2nc(NC3CCN(S(C)(=O)=O)CC3)ncc2C(F)(F)F)c1 [Example 252, 4-(1-(6-(Azetidin-1-ylmethyl)-2-methylpyridin-3-yl)-1H-imidazol-4-yl)-N-(1-(methylsulfonyl)piperidin-4-yl)-5-(trifluoromethyl)pyrimidin-2-amine]
C[C@@H]1CN(S(=O)(=O)C2CC2)CC[C@@H]1Nc1ncc(C(F)(F)F)c(-c2cn(-c3ccc(CNC4CC4)cc3Cl)cn2)n1 [Example 221, 4-(1-(2-Chloro-4-((cyclopropylamino)-methyl)phenyl)-1H-imidazol-4-yl)-N-((3R,4S)-1-(cyclo-propylsulfonyl)-3-methylpiperidin-4-yl)-5-(trifluoro-methyl)pyrimidin-2-amine]
C[C@@H]1CN(S(C)(=O)=O)CC[C@@H]1Nc1ncc(C(F)(F)F)c(-c2cn(-c3ccc(C4CCCCN4)cc3Cl)cn2)n1 (single isomer, unassigned) [Example 278]
CS(=O)(=O)N1CCC(Nc2ncc(C(F)(F)F)c(-c3cn(-c4c(F)cccc4Cl)cn3)n2)CC1 [Example 54, 4-(1-(2-Chloro-6-fluorophenyl)-1H-imidazol-4-yl)-N-(1-(methylsulfonyl)piperidin-4-yl)-5-(trifluoromethyl)pyrimidin-2-amine]
CNC(=O)c1ccc(-n2cnc(-c3nc(NC4CCN(S(C)(=O)=O)CC4)ncc3C(F)(F)F)c2)c(C)n1 [Example 132, N,6-Dimethyl-5-(4-(2-((1-(methyl-sulfonyl)piperidin-4-yl)amino)-5-(trifluoromethyl)-pyrimidin-4-yl)-1H-imidazol-1-yl)picolinamide]
CC(C)(O)Cn1cnc(-c2nc(NC3CCN(S(C)(=O)=O)CC3)ncc2C(F)(F)F)c1 [Example 22, 2-Methyl-1-(4-(2-((1-(methylsulfonyl)piperidin-4-yl)amino)-5-(trifluoromethyl)pyrimidin-4-yl)-1H-imidazol-1-yl)propan-2-ol]
CC(C)NCc1cc(F)c(-n2cnc(-c3nc(N[C@@H]4CCN(S(C)(=O)=O)C[C@H]4F)ncc3C(F)(F)F)c2)c(Cl)c1 [Example 405, 4-(1-(2-Chloro-6-fluoro-4-((isopropylamino)methyl)phenyl)-1H-imidazol-4-yl)-N-((3R,4R)-3-fluoro-1-(methylsulfonyl)piperidin-4-yl)-5-(trifluoromethyl)pyrimidin-2-amine]
Cc1nccc(-n2cnc(-c3nc(NC4CCN(S(C)(=O)=O)CC4)ncc3C(F)(F)F)c2)c1C#N [Example 293, 2-Methyl-4-(4-(2-((1-(methylsulfonyl)piperidin-4-yl)amino)-5-(trifluoromethyl)pyrimidin-4-yl)-1H-imidazol-1-yl)nicotinonitrile]
CNc1nccc(-n2cnc(-c3nc(NC4CCN(S(C)(=O)=O)CC4)ncc3C(F)(F)F)c2)c1Cl [Example 322, 4-(1-(3-Chloro-2-(methylamino)pyridin-4-yl)-1H-imidazol-4-yl)-N-(1-(methylsulfonyl)piperidin-4-yl)-5-(trifluoromethyl)pyrimidin-2-amine]
Cc1nc(-c2nc(NC3CCN(S(C)(=O)=O)CC3)ncc2C(F)(F)F)cn1-c1ccc(N2CCC(C)(N3CCCC3)CC2)cc1F [Example 414, 4-(1-(2-Fluoro-4-(4-methyl-4-(pyrrolidin-1-yl)piperidin-1-yl)phenyl)-2-methyl-1H-imidazol-4-yl)-N-(1-(methylsulfonyl)piperidin-4-yl)-5-(trifluoromethyl)pyrimidin-2-amine]
Cc1nc(-c2nc(NC3CCN(S(C)(=O)=O)CC3)ncc2C(F)(F)F)cn1-c1ccc(N2CCC(N3CCC(O)C3)CC2)cc1F (centres unmarked) [Example 455, 1-(1-(3-Fluoro-4-(2-methyl-4-(2-((1-(methylsulfonyl)piperidin-4-yl)amino)-5-(trifluoromethyl)pyrimidin-4-yl)-1H-imidazol-1-yl)phenyl)piperidin-4-yl)pyrrolidin-3-ol]
[2H]C([2H])([2H])NCc1cccc(-n2cnc(-c3nc(NC4CCN(S(C)(=O)=O)CC4)ncc3C(F)(F)F)c2)c1Cl [Example 462, 4-(1-(2-Chloro-3-(((methyl-d3)amino)methyl)phenyl)-1H-imidazol-4-yl)-N-(1-(methylsulfonyl)piperidin-4-yl)-5-(trifluoromethyl)pyrimidin-2-amine]
Cc1nc(-c2nc(NC3CCN(S(C)(=O)=O)CC3)ncc2C(F)(F)F)cn1-c1ccc(OCCN2CCCC2)cc1F [Example 424, 4-(1-(2-Fluoro-4-(2-(pyrrolidin-1-yl)ethoxy)phenyl)-2-methyl-1H-imidazol-4-yl)-N-(1-(mehtylsulfonyl)piperidin-4-yl)-5-(trifluoromethyl)pyrimidin-2-amine]
CCN1CCC(c2ccc(-n3cnc(-c4nc(NC5CCN(S(C)(=O)=O)CC5)ncc4C(F)(F)F)c3)c(Cl)c2)CC1 [Example 438, 4-(1-(2-Chloro-4-(1-ethylpiperidin-4-yl)phenyl)-1H-imidazol-4-yl)-N-(1-(methylsulfonyl)piperidin-4-yl)-5-(trifluoromethyl)pyrimidin-2-amine]
CS(=O)(=O)N1CCC(Nc2ncc(C(F)(F)F)c(-c3cn(-c4ccc(CCN5CCCC5)cc4C#N)cn3)n2)CC1 [Example 434, 2-(4-(2-((1-(Methylsulfonyl)piperidin-4-yl)amino)-5-(trifluoromethyl)pyrimidin-4-yl)-1H-imidazol-1-yl)-5-(2-(pyrrolidin-1-yl)ethyl)benzonitrile]
CC(C)NCCc1cccc(-n2cnc(-c3nc(NC4CCN(S(C)(=O)=O)CC4)ncc3C(F)(F)F)c2)c1Cl [Example 465, 4-(1-(2-Chloro-3-(2-(isopropylamino)ethyl)phenyl)-1H-imidazol-4-yl)-N-(1-(methylsulfonyl)piperidin-4-yl)-5-(trifluoromethyl)pyrimidin-2-amine]
COc1nccc(-n2cc(-c3nc(NC4CCN(S(C)(=O)=O)CC4)ncc3C(F)(F)F)nc2C)c1F [Example 314, 4-(1-(3-Fluoro-2-methoxypyridin-4-yl)-2-methyl-1H-imidazol-4-yl)-N-(1-(methylsulfonyl)piperidin-4-yl)-5-(trifluoromethyl)pyrimidin-2-amine]
CS(=O)(=O)N1CCC(Nc2ncc(C(F)(F)F)c(-c3cn(C4CCOCC4)cn3)n2)CC1 [Example 24, N-(1-(Methylsulfonyl)piperidin-4-yl)-4-(1-(tetrahydro-2H-pyran-4-yl)-1H-imidazol-4-yl)-5-(trifluoromethyl)pyrimidin-2-amine]
Cc1ccc(-n2cnc(-c3nc(N[C@H]4CCN(S(=O)(=O)c5cnc(N)nc5)C[C@H]4C)ncc3C(F)(F)F)c2)c(C#N)n1 [Example 153, 3-(4-(2-(((3R,4S)-1-((2-Amino-pyrimidin-5-yl)-sulfonyl)-3-methylpiperidin-4-yl)amino)-5-(trifluoromethyl)-pyrimidin-4-yl)-1H-imidazol-1-yl)-6-methyl-picolinonitrile]
